From paper PMC12498136, “Synthesis and biological evaluation of novel carnosic acid derivatives with anticancer activity” (RSC Advances, 2025)
Where two headings read alike, the source gives them in different places.

Experiments:
[1] = tested on: HCT116 cells; assay: MTT cell viability assay in HCT116 cells; assay type: cell-based; settings: for IC50: Homo sapiens, read-out: IC50 HCT116
Procedure: The MTT assay was used to assess the effect of the compounds on cell viability. […] Subsequently, the culture medium was switched with a new medium containing DMSO (control) or the compound at a specified concentration. […] The plates were then incubated for 1 h at 37 °C. After this time, the supernatant was aspirated, and the formazan crystals were dissolved in 100 μL of DMSO in each well. Relative cell viability was calculated by measuring absorbance at 570 nm using a Benchmark Plus Microplate Reader (Bio-Rad Laboratories, Hercules, CA, USA).

[2] = tested on: SW480 cells; assay: MTT cell viability assay in SW480 cells; assay type: cell-based
Procedure: (§1) The MTT assay was used to assess the effect of the compounds on cell viability. For this purpose, A375 (1500 cells per well), BJ (10 000 cells per well), Caco-2 (4000 cells per well), HCT116 (3000 cells per well), Mia Paca-2 (2000 cells per well), SW480 (6000 cells per well), and SW620 (8000 cells per well) cells were seeded in 96-well plates and incubated for 24 h. Subsequently, the culture medium was switched with a new medium containing DMSO (control) or the compound at a specified concentration. Following a 72 h incubation period, the supernatant was aspirated, and 100 μL of a mixture (1 : 1) of filtered MTT solution (1 mg per mL PBS) and FBS-free medium was added. The plates were then incubated for 1 h at 37 °C. After this time, the supernatant was aspirated, and the formazan crystals were dissolved in 100 μL of DMSO in each well. Relative cell viability was calculated by measuring absorbance at 570 nm using a Benchmark Plus Microplate Reader (Bio-Rad Laboratories, Hercules, CA, USA). Results are presented as the mean ± standard deviation (SD) of IC50 values, determined by nonlinear regression analysis of dose–response curves (log(inhibitor) vs. response with variable slope (four parameters)) using GraphPad Prism 9 software (GraphPad Software, San Diego, CA, USA).

[3] = tested on: SW620 cells; assay: MTT cell viability assay in SW620 cells; assay type: cell-based; settings: Homo sapiens, SW-620; MTT assay, 72 h incubation, mean ± SD; read-out: IC50 SW620
Procedure: as §1

[4] = tested on: Caco-2 cells; assay: MTT cell viability assay in Caco-2 cells; assay type: cell-based; settings: Homo sapiens, Caco-2; MTT assay, 72 h incubation, mean ± SD; read-out: IC50 Caco-2
Procedure: as §1

[5] = tested on: Mia Paca-2 cells; assay: MTT cell viability assay in Mia Paca-2 cells; assay type: cell-based; settings: Homo sapiens, MIA PaCa-2; MTT assay, 72 h incubation, mean ± SD; read-out: IC50 Mia Paca-2
Procedure: as §1

[6] = tested on: A375 cells; assay: MTT cell viability assay in A375 cells; assay type: cell-based; settings: Homo sapiens, A-375; MTT assay, 72 h incubation, mean ± SD; read-out: IC50 A375
Procedure: as §1

[7] = tested on: HCT116 cells; settings: MTT assay, 72 h; previously determined by the research team, ref [26]; cited from earlier work
[8] = tested on: SW620 cells; parameters: method as in PMID 31909511; settings: MTT assay, previously determined by the research team, ref [35]; cited from earlier work
[9] = tested on: Mia Paca-2 cells; parameters: method as in PMID 18007390; settings: MTT assay, from the literature, ref [37]; cited from earlier work
[10] = tested on: A375 cells; parameters: method as in PMID 23229057; settings: MTT assay, from the literature, ref [38]; cited from earlier work
[11] = tested on: BJ cells; parameters: method as in doi:10.1039/C5RA19120C; settings: MTT assay, previously determined by the research team, ref [39]; read-out: IC50 BJ (non-tumoral); cited from earlier work
[12] = HCT-116, MTT assay, 72 h incubation, mean ± SD
[13] = SW480 cells, ratio of IC50 values

COC(=O)N[C@]12CCCC(C)(C)[C@@H]1CCc1cc(C(C)C)c(OC(C)=O)c(OC(C)=O)c12 [Compound 15, (4bR,8aS)-4b-[(Methoxycarbonyl)amino]-8,8-dimethyl-2-(propan-2-yl)-4b,5,6,7,8,8a,9,10-octahydrophenanthrene-3,4-diyl diacetate]
IC50 ([1]; HCT-116, 72 h): 55 ± 5 µM

CCCCOC(=O)[C@]12CCCC(C)(C)[C@@H]1CC(O)c1cc(C(C)C)c(OC(C)=O)c(OC(C)=O)c12 (stereo partly drawn) [Compound 11, Butyl(4aR,10aS)-5,6-bis(acetyloxy)-9-hydroxy-1,1-dimethyl-7-(propan-2-yl)-1,3,4,9,10,10a-hexahydrophenanthrene-4a(2H)-carboxylate]
IC50 [1, 12]: 27 ± 4 µM

CCOC(=O)[C@]12CCCC(C)(C)[C@@H]1CC(O)c1cc(C(C)C)c(OC(C)=O)c(OC(C)=O)c12 (stereo partly drawn) [Compound 10, Ethyl(4aR,10aS)-5,6-bis(acetyloxy)-9-hydroxy-1,1-dimethyl-7-(propan-2-yl)-1,3,4,9,10,10a-hexahydrophenanthrene-4a(2H)-carboxylate]
IC50 [1, 12]: 34 ± 3 µM

CCOC(=O)N[C@]12CCCC(C)(C)[C@@H]1CCc1cc(C(C)C)c(OC(C)=O)c(OC(C)=O)c12 [Compound 16, (4bR,8aS)-4b-[(Ethoxycarbonyl)amino]-8,8-dimethyl-2-(propan-2-yl)-4b,5,6,7,8,8a,9,10-octahydrophenanthrene-3,4-diyl diacetate]
IC50 ([1]; HCT-116, 72 h): 37 ± 2 µM

CCCCOC(=O)[C@]12CCCC(C)(C)[C@@H]1CCc1cc(C(C)C)c(OC(C)=O)c(OC(C)=O)c12 [Compound 5, Butyl(4aR,10aS)-5,6-bis(acetyloxy)-1,1-dimethyl-7-(propan-2-yl)-1,3,4,9,10,10a-hexahydrophenanthrene-4a(2H)-carboxylate]
IC50 [1, 12]: 26 ± 1 µM

CCOC(=O)N[C@]12CCCC(C)(C)[C@@H]1CC(=O)c1cc(C(C)C)c(OC(C)=O)c(OC(C)=O)c12 [Compound 19, (4bR,8aS)-4b-[(Ethoxycarbonyl)amino]-8,8-dimethyl-10-oxo-2-(propan-2-yl)-4b,5,6,7,8,8a,9,10-octahydrophenanthrene-3,4-diyl diacetate]
IC50 ([1]; HCT-116, 72 h): 48.2 ± 0.1 µM

COC(=O)N[C@]12CCCC(C)(C)[C@@H]1CC(=O)c1cc(C(C)C)c(OC(C)=O)c(OC(C)=O)c12 [Compound 18, (4bR,8aS)-4b-[(Methoxycarbonyl)amino]-8,8-dimethyl-10-oxo-2-(propan-2-yl)-4b,5,6,7,8,8a,9,10-octahydrophenanthrene-3,4-diyl diacetate]
IC50 ([1]; HCT-116, 72 h): > 50 µM

CC(=O)Oc1c(C(C)C)cc2c(c1OC(C)=O)[C@@]1(C(=O)O)CCCC(C)(C)[C@@H]1CC2 [Compound 2, (4aR,10aS)-5,6-Bis(acetyloxy)-1,1-dimethyl-7-(propan-2-yl)1,3,4,9,10,10a-hexahydrophenanthrene-4a(2H)-carboxylic acid]
IC50 [1, 12]: 44 ± 4 µM

CCCCOC(=O)[C@]12CCCC(C)(C)[C@@H]1CC(=O)c1cc(C(C)C)c(OC(C)=O)c(OC(C)=O)c12 [Compound 8, Butyl(4aR,10aS)-5,6-bis(acetyloxy)-1,1-dimethyl-9-oxo-7-(propan-2-yl)-1,3,4,9,10,10a-hexahydrophenanthrene-4a(2H)-carboxylate]
fold more active than cisplatin ([1]; HCT116 cells, ratio of IC50 values): 1.4 fold | IC50 [1, 12]: 15.1 ± 0.7 µM | IC50 ([2]; Homo sapiens, SW480, MTT assay, 72 h incubation, mean ± SD, read-out: IC50 SW480): 6.8 ± 0.6 µM | fold more active than cisplatin [2, 13]: 2.2 fold | fold more potent than CA 1 [2, 13]: 3.2 fold | IC50 [3]: 11 ± 1 µM | IC50 [4]: 12.7 ± 0.3 µM | IC50 [5]: 12 ± 1 µM | IC50 [6]: 8.1 ± 0.5 µM

N.N.[Cl][Pt][Cl] [Cisplatin]
IC50 [7]: 21 ± 1 µM | IC50 [8]: 1.4 ± 0.5 µM | IC50 [9]: 5 ± 1 µM | IC50 [10]: 3 ± 1 µM | IC50 [11]: 10 ± 2 µM

CC(=O)Oc1c(C(C)C)cc2c(c1OC(C)=O)[C@@]1(N=C=O)CCCC(C)(C)[C@@H]1CC2 [Compound 14, (4bR,8aS)-4b-Isocyanato-8,8-dimethyl-2-(propan-2-yl)-4b,5,6,7,8,8a,9,10-octahydrophenanthrene-3,4-diyl diacetate]
IC50 ([1]; HCT-116, 72 h): 28 ± 3 µM

CCOC(=O)[C@]12CCCC(C)(C)[C@@H]1CCc1cc(C(C)C)c(OC(C)=O)c(OC(C)=O)c12 [Compound 4, Ethyl(4aR,10aS)-5,6-bis(acetyloxy)-1,1-dimethyl-7-(propan-2-yl)-1,3,4,9,10,10a-hexahydrophenanthrene-4a(2H)-carboxylate]
IC50 ([1]; HCT-116, 72 h): 25 ± 2 µM

COC(=O)[C@]12CCCC(C)(C)[C@@H]1CC(O)c1cc(C(C)C)c(OC(C)=O)c(OC(C)=O)c12 (stereo partly drawn) [Compound 9, Methyl(4aR,10aS)-5,6-bis(acetyloxy)-9-hydroxy-1,1-dimethyl-7-(propan-2-yl)-1,3,4,9,10,10a-hexahydrophenanthrene-4a(2H)-carboxylate]
IC50 [1, 12]: 37 ± 3 µM

CCOC(=O)[C@]12CCCC(C)(C)[C@@H]1CC(=O)c1cc(C(C)C)c(OC(C)=O)c(OC(C)=O)c12 [Compound 7, Ethyl(4aR,10aS)-5,6-bis(acetyloxy)-1,1-dimethyl-9-oxo-7-(propan-2-yl)-1,3,4,9,10,10a-hexahydrophenanthrene-4a(2H)-carboxylate]
IC50 [1, 12]: 31 ± 3 µM

CC(C)c1cc2c(c(O)c1O)[C@@]1(C(=O)O)CCCC(C)(C)[C@@H]1CC2 [CA 1, Carnosic acid]
IC50 [1, 12]: 42 ± 4 µM | IC50 [3]: 18 ± 2 µM | IC50 [4]: 34 ± 2 µM | IC50 [5]: 21 ± 1 µM

COC(=O)[C@]12CCCC(C)(C)[C@@H]1CC(=O)c1cc(C(C)C)c(OC(C)=O)c(OC(C)=O)c12 [Compound 6, Methyl(4aR,10aS)-5,6-bis(acetyloxy)-1,1-dimethyl-9-oxo-7-(propan-2-yl)-1,3,4,9,10,10a-hexahydrophenanthrene-4a(2H)-carboxylate]
IC50 [1, 12]: 36 ± 1 µM
